Patent US10674725B1, “Herbicidal composition and method for controlling weeds” (SUMITOMO CHEMICAL COMPANY, LIMITED, priority 2019, dated 2020)

Key:
[1] = system: corn plant; details: corn at 2.5-leaf stage, spot-on 2nd leaf; dicamba-biproamine 4,000,000 ng/plant (acid equivalent), PPO inhibitor 2 ng/plant where added; 6 days after treatment
Protocol: An aqueous dilution of trifludimoxazin was prepared by mixing one part of a trifludimoxazin formulation (obtained by mixing a predetermined amount of trifludimoxazin with acetone containing 2% of Tween 20) with 4 parts of water, so as to have a concentration of 0.1 ppm of trifludimoxazin.
6 days after the spot-on treatments, an angle of inclination of the main tiller of the corn plant from the vertical line was measured as a quantitative measure of dicamba corn injury of leaning tiller.

[2] = system: soybean plant; details: soybean at 2 trifoliate leaf stage, spot-on 2nd trifoliate leaf; dicamba-biproamine 40,000 ng/plant (acid equivalent), PPO inhibitor 20 ng/plant where added; 6 days after treatment; visually estimated

## CN(CCCN)CCCN.COc1c(Cl)ccc(Cl)c1C(=O)O [Dicamba-biproamine, dicamba-biproamine]
[1]
  Angle of inclination of the main tiller from the vertical line: 90 degrees
[2]
  Leaf area (% of non-treated): 40%
